Legend:
Test in all cases: Test C pre-/postemergence herbicide test
[1] = test system: large crabgrass; type: in vivo, Digitaria sanguinalis; settings: for Crabgrass, Large plant response rating: 500 g ai/ha
How it was run: (§1)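 Emerged plants at the 1- to 4-leaf stage (2–18 cm), or freshly planted seeds, received test chemicals in a non-phytotoxic solvent mixture with surfactant. Response was visually scored against controls after 12 to 14 days in the greenhouse, on a 0 (no effect) to 100 (complete control) scale.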

[2] = test system: corn; type: in vivo, Zea mays; settings: for Corn plant response rating: 500 g ai/ha
How it was run: as §1

[3] = test system: cocklebur; type: in vivo, Xanthium strumarium
How it was run: as §1

[4] = test system: lambsquarters; type: in vivo, Chenopodium album; settings: for Lambsquarters plant response rating: 500 g ai/ha
How it was run: as §1

[5] = test system: eastern black nightshade; type: in vivo, Solanum ptycanthum; settings: for Nightshade plant response rating: Preemergence, 500 g ai/ha, scale 0 to 100, 0 no effect, 100 complete control
Text: (§2) Seeds of plant species selected from bermudagrass (Cynodon dactylon (L.) Pers.), Surinam grass (Urochloa decumbens (Staph) R. D. Webster, previously named Brachiaria decumbens Stapf), cocklebur (Xanthium strumarium L.), corn (Zea mays L.), large crabgrass (Digitaria sanguinalis (L.) Scop.), woolly cupgrass (Eriochloa villosa (Thunb.) Kunth), giant foxtail (Setaria faberi Herrm.), goosegrass (Eleusine indica (L.) Gaertn.), johnsongrass (Sorghum halepense (L.) Pers.), kochia (Kochia scoparia (L.) Schrad.), lambsquarters (Chenopodium album L.), morningglory (Ipomoea coccinea L.), eastern black nightshade (Solanum ptycanthum Dunal), yellow nutsedge (Cyperus esculentus L.), pigweed (Amaranthus retroflexus L.), common ragweed (Ambrosia elatior L.), soybean (Glycine max (L.) Merr.), common (oilseed) sunflower (Helianthus annuus L.) and velvetleaf (Abutilon theophrasti Medik.) were planted and treated preemergence with test chemicals formulated in a non-phytotoxic solvent mixture which included a surfactant.
(§3) At the same time, plants selected from these crop and weed species and also winter barley (Hordeum vulgare L.), blackgrass (Alopecurus myosuroides Huds.), canarygrass (Phalaris minor Retz.), chickweed (Stellaria media (L.) Vill.), downy bromegrass (Bromus tectorum L.), green foxtail (Setaria viridis (L.) Beauv.), Italian ryegrass (Lolium multiflorum Lam.), wheat (Triticum aestivum L.), wild oat (Avenafatua L.) and windgrass (Apera spica-venti (L.) Beauv.) were treated with postemergence applications of some of the test chemicals formulated in the same manner. Plants ranged in height from 2 to 18 cm (1- to 4-leaf stage) for postemergence treatments. Plant species in the flooded paddy test consisted of rice (Oryza sativa), smallflower umbrella sedge (Cyperus difformis L.), ducksalad (Heteranthera limosa (Sw.) Willd.) and barnyardgrass (Echinochloa crus-galli (L.) Beauv.) grown to the 2-leaf stage for testing. Treated plants and controls were maintained in a greenhouse for 12 to 14 days, after which time all species were compared to controls and visually evaluated. Plant response ratings, summarized in Table C, are based on a scale of 0 to 100 where 0 is no effect and 100 is complete control. A dash (-) response means no test result.

[6] = test system: common ragweed; type: in vivo, Ambrosia elatior; set-up: key to Plant response rating, Ragweed: 0 = no effect, 100 = complete control; settings: for Ragweed plant response rating: 500 g ai/ha
How it was run: as §1

[7] = test system: pigweed; type: in vivo, Amaranthus retroflexus; settings: for Pigweed plant response rating: 500 g ai/ha
How it was run: as §1

[8] = test system: velvetleaf; type: in vivo, Abutilon theophrasti; settings: for Velvetleaf plant response rating: 500 g ai/ha
How it was run: as §1

[9] = test system: common (oilseed) sunflower; type: in vivo, Helianthus annuus; settings: for Sunflower plant response rating: Preemergence, 500 g ai/ha, scale 0 to 100, 0 no effect, 100 complete control
Text: as §2, §3

[10] = 125 g ai/ha, scale 0 (no effect) to 100 (complete control), visual, 12 to 14 days, preemergence
[11] = 250 g ai/ha, scale 0 to 100 (0 no effect, 100 complete control), visual, 12 to 14 days, preemergence
[12] = Postemergence, 125 g ai/ha, scale 0 to 100, 0 no effect, 100 complete control
[13] = Postemergence, 250 g ai/ha, scale 0 to 100, 0 no effect, 100 complete control
[14] = Preemergence, scale 0 to 100, 0 no effect, 100 complete control
[15] = postemergence, 62 g ai/ha, scale 0 to 100

C#CCn1nc(C(C)(C)C)cc1C(=O)Nc1cccc(C(=O)NCC)c1 [Compound 50]
Plant response rating (0 = no effect, 100 = complete control), Crabgrass, Large ([1]; 62 g ai/ha, preemergence): 0
Plant response rating, Crabgrass, Large [1, 10]: 0
Plant response rating, Crabgrass, Large [1, 11]: 20
Crabgrass, Large plant response rating ([1]; Postemergence, scale 0 to 100): 0
Plant response rating, Crabgrass, Large [1, 12]: 0
Plant response rating, Crabgrass, Large [1, 13]: 0
Crabgrass, Large plant response rating [1, 14]: 80
Plant response rating, Crabgrass, Large [1, 15]: 0
Plant response rating (0 = no effect, 100 = complete control), Corn ([2]; 62 g ai/ha, preemergence): 0
Plant response rating, Corn [2, 10]: 0
Plant response rating, Corn [2, 11]: 0
Corn plant response rating ([2]; Postemergence, scale 0 to 100): 85
Plant response rating, Corn [2, 12]: 80
Plant response rating, Corn [2, 13]: 85
Corn plant response rating [2, 14]: 10
Plant response rating, Corn [2, 15]: 20
Plant response rating (0 = no effect, 100 = complete control), Cocklebur ([3]; 62 g ai/ha, preemergence): 0
Plant response rating, Cocklebur [3, 10]: 10
Plant response rating, Cocklebur [3, 11]: 80
Cocklebur plant response rating ([3]; Postemergence, 500 g ai/ha, scale 0 to 100): 10
Plant response rating, Cocklebur [3, 12]: 10
Plant response rating, Cocklebur [3, 13]: 10
Cocklebur plant response rating ([3]; Preemergence, 500 g ai/ha, scale 0 to 100, 0 no effect, 100 complete control): 80
Plant response rating, Cocklebur [3, 15]: 10
Plant response rating (0 = no effect, 100 = complete control), Lambsquarters ([4]; 62 g ai/ha, preemergence): 85
Plant response rating, Lambsquarters [4, 10]: 85
Plant response rating, Lambsquarters [4, 11]: 100
Lambsquarters plant response rating ([4]; Postemergence, scale 0 to 100): 0
Plant response rating, Lambsquarters [4, 13]: 0
Lambsquarters plant response rating [4, 14]: 100
Plant response rating, Lambsquarters [4, 15]: 0
Plant response rating (0 = no effect, 100 = complete control), Nightshade ([5]; 62 g ai/ha, preemergence): 0
Plant response rating, Nightshade [5, 10]: 5
Plant response rating, Nightshade [5, 11]: 80
Nightshade plant response rating [5]: 95
Plant response rating (0 = no effect, 100 = complete control), Ragweed ([6]; 62 g ai/ha, preemergence): 10
Plant response rating, Ragweed [6, 10]: 40
Plant response rating, Ragweed [6, 11]: 80
Ragweed plant response rating ([6]; Postemergence, scale 0 to 100): 85
Plant response rating, Ragweed [6, 13]: 85
Ragweed plant response rating [6, 14]: 100
Plant response rating, Ragweed [6, 15]: 80
Plant response rating (0 = no effect, 100 = complete control), Pigweed ([7]; 62 g ai/ha, preemergence): 90
Plant response rating, Pigweed [7, 10]: 90
Plant response rating, Pigweed [7, 11]: 95
Pigweed plant response rating ([7]; Postemergence, scale 0 to 100): 100
Plant response rating, Pigweed [7, 13]: 100
Pigweed plant response rating [7, 14]: 95
Plant response rating, Pigweed [7, 15]: 50
Plant response rating (0 = no effect, 100 = complete control), Velvetleaf ([8]; 62 g ai/ha, preemergence): 0
Plant response rating, Velvetleaf [8, 10]: 5
Plant response rating, Velvetleaf [8, 11]: 5
Velvetleaf plant response rating ([8]; Postemergence, scale 0 to 100): 100
Plant response rating, Velvetleaf [8, 13]: 100
Velvetleaf plant response rating [8, 14]: 5
Plant response rating, Velvetleaf [8, 15]: 100
Plant response rating (0 = no effect, 100 = complete control), Sunflower ([9]; 62 g ai/ha, preemergence): 0
Plant response rating, Sunflower [9, 10]: 0
Plant response rating, Sunflower [9, 11]: 0
Sunflower plant response rating [9]: 0

CCc1nn(C(C)(C)C)cc1C(=O)Nc1cccc(C(=O)N(CC)CC)c1 [Compound 182, N-[3-[(diethylamino)carbonyl]phenyl]-1-(1,1-dimethylethyl)-3-ethyl-1H-pyrazole-4-carboxamide]
pest or weed control at 62 g/ha ([1]; Digitaria sanguinalis, pre-emergence, 312 h, 62 g ai/ha, preemergence, scale 0 to 100, read-out: Plant response rating, Crabgrass, Large): 0%
pest or weed control at 125 g/ha ([1]; Digitaria sanguinalis, pre-emergence, 312 h, 125 g ai/ha, scale 0 (no effect) to 100 (complete control), visual, 12 to 14 days, read-out: Plant response rating, Crabgrass, Large): 25%
pest or weed control at 250 g/ha ([1]; Digitaria sanguinalis, pre-emergence, 312 h, 250 g ai/ha, scale 0 to 100 (0 no effect, 100 complete control), visual, 12 to 14 days, read-out: Plant response rating, Crabgrass, Large): 75%
Crabgrass, Large plant response rating [1, 14]: 100
Corn plant response rating [2, 14]: 0
Corn plant response rating (crop injury, 0 = no effect, 100 = complete kill) at 62 g/ha ([2]; Zea mays, pre-emergence, 312 h, 62 g ai/ha, preemergence, scale 0 to 100): 0%
Corn plant response rating (crop injury, 0 = no effect, 100 = complete kill) at 125 g/ha ([2]; Zea mays, pre-emergence, 312 h, 125 g ai/ha, scale 0 (no effect) to 100 (complete control), visual, 12 to 14 days): 0%
Corn plant response rating (crop injury, 0 = no effect, 100 = complete kill) at 250 g/ha ([2]; Zea mays, pre-emergence, 312 h, 250 g ai/ha, scale 0 to 100 (0 no effect, 100 complete control), visual, 12 to 14 days): 0%
pest or weed control at 62 g/ha ([3]; Xanthium strumarium, pre-emergence, 312 h, 62 g ai/ha, preemergence, scale 0 to 100, read-out: Plant response rating, Cocklebur): 0%
pest or weed control at 125 g/ha ([3]; Xanthium strumarium, pre-emergence, 312 h, 125 g ai/ha, scale 0 (no effect) to 100 (complete control), visual, 12 to 14 days, read-out: Plant response rating, Cocklebur): 0%
pest or weed control at 250 g/ha ([3]; Xanthium strumarium, pre-emergence, 312 h, 250 g ai/ha, scale 0 to 100 (0 no effect, 100 complete control), visual, 12 to 14 days, read-out: Plant response rating, Cocklebur): 0%
pest or weed control at 500 g/ha ([3]; Xanthium strumarium, pre-emergence, 312 h, Preemergence, 500 g ai/ha, scale 0 to 100, 0 no effect, 100 complete control, read-out: Cocklebur plant response rating): 0%
pest or weed control at 62 g/ha ([4]; Chenopodium album, pre-emergence, 62 g ai/ha, preemergence, scale 0 to 100, read-out: Plant response rating, Lambsquarters): 25%
pest or weed control at 125 g/ha ([4]; Chenopodium album, pre-emergence, 125 g ai/ha, scale 0 (no effect) to 100 (complete control), visual, 12 to 14 days, read-out: Plant response rating, Lambsquarters): 95%
Lambsquarters plant response rating [4, 14]: 95
Nightshade plant response rating [5]: 95
pest or weed control at 62 g/ha ([5]; pre-emergence, 62 g ai/ha, preemergence, scale 0 to 100, read-out: Plant response rating, Nightshade): 70%
pest or weed control at 125 g/ha ([5]; pre-emergence, 125 g ai/ha, scale 0 (no effect) to 100 (complete control), visual, 12 to 14 days, read-out: Plant response rating, Nightshade): 80%
pest or weed control at 62 g/ha ([6]; Ambrosia artemisiifolia, pre-emergence, 62 g ai/ha, preemergence, scale 0 to 100, read-out: Plant response rating, Ragweed): 20%
pest or weed control at 125 g/ha ([6]; Ambrosia artemisiifolia, pre-emergence, 125 g ai/ha, scale 0 (no effect) to 100 (complete control), visual, 12 to 14 days, read-out: Plant response rating, Ragweed): 20%
Ragweed plant response rating [6, 14]: 65
pest or weed control at 62 g/ha ([7]; Amaranthus retroflexus, pre-emergence, 62 g ai/ha, preemergence, scale 0 to 100, read-out: Plant response rating, Pigweed): 95%
pest or weed control at 125 g/ha ([7]; Amaranthus retroflexus, pre-emergence, 125 g ai/ha, scale 0 (no effect) to 100 (complete control), visual, 12 to 14 days, read-out: Plant response rating, Pigweed): 95%
Pigweed plant response rating [7, 14]: 95
pest or weed control at 62 g/ha ([8]; Abutilon theophrasti, pre-emergence, 62 g ai/ha, preemergence, scale 0 to 100, read-out: Plant response rating, Velvetleaf): 0%
pest or weed control at 125 g/ha ([8]; Abutilon theophrasti, pre-emergence, 125 g ai/ha, scale 0 (no effect) to 100 (complete control), visual, 12 to 14 days, read-out: Plant response rating, Velvetleaf): 0%
Velvetleaf plant response rating [8, 14]: 100
pest or weed control at 62 g/ha ([9]; Helianthus annuus, pre-emergence, 62 g ai/ha, preemergence, scale 0 to 100, read-out: Plant response rating, Sunflower): 0%
pest or weed control at 125 g/ha ([9]; Helianthus annuus, pre-emergence, 125 g ai/ha, scale 0 (no effect) to 100 (complete control), visual, 12 to 14 days, read-out: Plant response rating, Sunflower): 0%
Sunflower plant response rating [9]: 0
